Measurements from ChEMBL document CHEMBL4411321, “Discovery of Potent, Selective, and Orally Bioavailable Estrogen-Related Receptor-γ Inverse Agonists To Restore the Sodium Iodide Symporter Function in Anaplastic Thyroid Cancer” (J Med Chem, 2019).
pIC50: −log10 of the molar value.

Tests used:
[1] = target: CYP2D6 (Homo sapiens, UniProt P10635); test: Inhibition of CYP2D6 in human liver microsomes assessed as reduction in dextromethorphan O-demethylase activity at 10 uM preincubated for 5 mins followed by NADPH addition and measured after 15 mins by LC-MS/MS analysis relative to control; format: ADME; conditions: probe dextromethorphan (O-demethylation)
Chain of CYP2D6 (P10635 whole entry): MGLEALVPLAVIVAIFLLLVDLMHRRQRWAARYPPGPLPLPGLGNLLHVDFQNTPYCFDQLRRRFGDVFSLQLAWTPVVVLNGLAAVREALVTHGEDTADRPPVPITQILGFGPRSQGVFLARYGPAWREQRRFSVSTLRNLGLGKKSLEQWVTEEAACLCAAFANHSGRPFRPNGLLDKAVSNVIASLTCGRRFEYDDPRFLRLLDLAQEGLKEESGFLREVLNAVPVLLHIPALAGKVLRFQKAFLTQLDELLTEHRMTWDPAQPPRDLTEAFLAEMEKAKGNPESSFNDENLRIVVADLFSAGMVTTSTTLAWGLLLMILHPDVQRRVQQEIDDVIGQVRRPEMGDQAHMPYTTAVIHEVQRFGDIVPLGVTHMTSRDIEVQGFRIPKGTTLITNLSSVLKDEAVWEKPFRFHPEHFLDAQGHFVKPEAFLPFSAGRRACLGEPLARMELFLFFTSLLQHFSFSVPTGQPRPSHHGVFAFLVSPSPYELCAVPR

[2] = Metabolic stability in human liver microsomes assessed as compound remaining at 1 uM after 30 mins in presence of NADPH regeneration system by LC-MS/MS analysis; format: ADME, Microsome; conditions: read-out: Stability
[3] = target: T1, Estrogen receptor (Homo sapiens, UniProt P03372)
T1 sequence (P03372 whole entry): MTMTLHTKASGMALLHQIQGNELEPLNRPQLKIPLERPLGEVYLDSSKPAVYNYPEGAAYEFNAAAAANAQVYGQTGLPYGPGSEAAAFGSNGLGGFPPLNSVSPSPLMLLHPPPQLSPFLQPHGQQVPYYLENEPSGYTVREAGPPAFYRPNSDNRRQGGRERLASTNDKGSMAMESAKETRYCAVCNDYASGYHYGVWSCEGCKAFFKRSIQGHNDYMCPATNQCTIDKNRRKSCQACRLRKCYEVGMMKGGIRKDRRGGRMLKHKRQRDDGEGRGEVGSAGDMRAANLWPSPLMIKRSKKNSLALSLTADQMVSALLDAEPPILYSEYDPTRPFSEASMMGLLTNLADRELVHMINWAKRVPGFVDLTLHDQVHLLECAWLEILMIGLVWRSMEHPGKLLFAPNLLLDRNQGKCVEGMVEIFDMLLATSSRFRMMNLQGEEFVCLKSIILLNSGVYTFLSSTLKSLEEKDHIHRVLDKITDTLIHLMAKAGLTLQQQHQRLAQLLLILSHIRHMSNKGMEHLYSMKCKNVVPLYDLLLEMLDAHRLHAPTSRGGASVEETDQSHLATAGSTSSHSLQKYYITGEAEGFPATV

[4] = target: CYP3A4 (Homo sapiens, UniProt P08684); test: Inhibition of CYP3A4 in human liver microsomes assessed as reduction in midazolam 1-hydroxylase activity at 10 uM preincubated for 5 mins followed by NADPH addition and measured after 15 mins by LC-MS/MS analysis relative to control; format: ADME; conditions: probe midazolam (1-hydroxylation)
Chain of CYP3A4 (P08684 whole entry): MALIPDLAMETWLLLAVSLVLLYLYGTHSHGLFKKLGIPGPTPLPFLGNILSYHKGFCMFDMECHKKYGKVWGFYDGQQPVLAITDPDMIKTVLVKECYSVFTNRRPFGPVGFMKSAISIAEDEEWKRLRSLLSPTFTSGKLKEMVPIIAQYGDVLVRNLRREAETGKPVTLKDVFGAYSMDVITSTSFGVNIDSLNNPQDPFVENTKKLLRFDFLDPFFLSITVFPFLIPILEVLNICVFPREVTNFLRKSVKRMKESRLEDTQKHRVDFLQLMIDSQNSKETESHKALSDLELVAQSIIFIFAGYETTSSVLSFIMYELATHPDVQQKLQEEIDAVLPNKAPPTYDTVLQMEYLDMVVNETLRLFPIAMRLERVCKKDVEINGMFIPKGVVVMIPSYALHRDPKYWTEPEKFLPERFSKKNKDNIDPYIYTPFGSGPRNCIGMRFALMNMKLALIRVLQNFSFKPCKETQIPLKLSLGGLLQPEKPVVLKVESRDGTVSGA

[5] = target: CYP2C19 (Homo sapiens, UniProt P33261); test: Inhibition of CYP2C19 in human liver microsomes assessed as reduction in S-mephenytoin 4-hydroxylase activity at 10 uM preincubated for 5 mins followed by NADPH addition and measured after 15 mins by LC-MS/MS analysis relative to control; format: ADME; conditions: probe S-mephenytoin (4-hydroxylation)
Chain of CYP2C19 (P33261 whole entry): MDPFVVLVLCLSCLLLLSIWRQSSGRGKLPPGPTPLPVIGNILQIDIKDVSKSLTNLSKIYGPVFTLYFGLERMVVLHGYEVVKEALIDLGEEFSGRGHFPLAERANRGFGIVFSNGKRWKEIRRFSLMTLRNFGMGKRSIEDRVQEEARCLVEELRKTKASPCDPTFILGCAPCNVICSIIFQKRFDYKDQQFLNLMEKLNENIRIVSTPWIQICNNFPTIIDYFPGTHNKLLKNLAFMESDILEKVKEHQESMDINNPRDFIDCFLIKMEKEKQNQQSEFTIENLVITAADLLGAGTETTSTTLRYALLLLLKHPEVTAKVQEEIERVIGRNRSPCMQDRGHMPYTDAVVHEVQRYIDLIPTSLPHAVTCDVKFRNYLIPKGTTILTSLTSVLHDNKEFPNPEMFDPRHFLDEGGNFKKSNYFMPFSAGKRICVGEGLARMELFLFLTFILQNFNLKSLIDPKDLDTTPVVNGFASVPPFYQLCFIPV

[6] = Metabolic stability in rat liver microsomes assessed as compound remaining at 1 uM after 30 mins in presence of NADPH regeneration system by LC-MS/MS analysis; format: ADME, Microsome; conditions: read-out: Stability
[7] = target: CYP2C9 (Homo sapiens, UniProt P11712); test: Inhibition of CYP2C9 in human liver microsomes assessed as reduction in tolbutamide 4-hydroxylase activity at 10 uM preincubated for 5 mins followed by NADPH addition and measured after 15 mins by LC-MS/MS analysis relative to control; format: ADME; conditions: probe tolbutamide (4-hydroxylation)
Chain of CYP2C9 (P11712 whole entry): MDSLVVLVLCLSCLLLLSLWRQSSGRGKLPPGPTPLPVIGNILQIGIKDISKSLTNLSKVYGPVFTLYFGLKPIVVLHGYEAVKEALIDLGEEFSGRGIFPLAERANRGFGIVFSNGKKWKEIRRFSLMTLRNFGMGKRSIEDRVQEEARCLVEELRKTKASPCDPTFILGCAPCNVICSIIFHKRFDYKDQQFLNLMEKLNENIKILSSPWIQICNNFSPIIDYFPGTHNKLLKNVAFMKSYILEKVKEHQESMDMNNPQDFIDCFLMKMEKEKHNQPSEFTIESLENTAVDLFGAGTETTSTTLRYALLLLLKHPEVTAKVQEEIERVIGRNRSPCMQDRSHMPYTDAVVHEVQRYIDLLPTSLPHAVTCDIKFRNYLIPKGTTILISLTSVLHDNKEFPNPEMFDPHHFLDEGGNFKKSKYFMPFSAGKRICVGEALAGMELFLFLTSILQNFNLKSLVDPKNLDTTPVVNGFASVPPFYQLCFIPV

[8] = target: T2, CYP1A2 (Homo sapiens, UniProt P05177); test: Inhibition of CYP1A2 in human liver microsomes assessed as reduction in phenacetin O-deethylase activity at 10 uM preincubated for 5 mins followed by NADPH addition and measured after 15 mins by LC-MS/MS analysis relative to control; format: ADME; conditions: probe phenacetin (O-deethylation)
T2 sequence (P05177 whole entry): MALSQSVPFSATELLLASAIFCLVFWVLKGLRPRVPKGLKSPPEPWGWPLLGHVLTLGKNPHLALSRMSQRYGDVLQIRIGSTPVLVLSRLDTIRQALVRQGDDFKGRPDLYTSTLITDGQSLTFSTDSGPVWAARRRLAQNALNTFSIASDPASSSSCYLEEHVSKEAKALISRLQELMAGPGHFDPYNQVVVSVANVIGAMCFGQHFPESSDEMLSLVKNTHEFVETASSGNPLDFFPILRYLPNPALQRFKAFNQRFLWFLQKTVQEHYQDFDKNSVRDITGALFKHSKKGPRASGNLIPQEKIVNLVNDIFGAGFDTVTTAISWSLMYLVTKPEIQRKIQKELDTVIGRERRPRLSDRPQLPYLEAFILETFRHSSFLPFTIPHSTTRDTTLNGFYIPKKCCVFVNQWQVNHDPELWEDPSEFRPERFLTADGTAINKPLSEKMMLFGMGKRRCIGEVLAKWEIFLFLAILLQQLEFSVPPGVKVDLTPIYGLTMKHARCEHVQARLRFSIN

[9] = target: T3, Estrogen-related receptor gamma (Homo sapiens, UniProt P62508)
T3 sequence (P62508 whole entry): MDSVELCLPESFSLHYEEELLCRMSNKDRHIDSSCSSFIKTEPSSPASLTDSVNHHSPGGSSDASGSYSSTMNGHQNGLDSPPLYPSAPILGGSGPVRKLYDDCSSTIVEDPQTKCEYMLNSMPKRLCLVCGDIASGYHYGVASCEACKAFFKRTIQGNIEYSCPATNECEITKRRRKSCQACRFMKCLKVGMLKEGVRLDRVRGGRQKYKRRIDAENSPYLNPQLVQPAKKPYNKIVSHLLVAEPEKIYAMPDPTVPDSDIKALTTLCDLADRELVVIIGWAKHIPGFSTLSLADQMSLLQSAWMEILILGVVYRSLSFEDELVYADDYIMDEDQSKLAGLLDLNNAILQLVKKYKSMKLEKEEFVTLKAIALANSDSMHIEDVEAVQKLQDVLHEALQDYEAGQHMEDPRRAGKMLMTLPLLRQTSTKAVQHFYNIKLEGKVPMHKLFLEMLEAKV

[10] = target: T4, Steroid hormone receptor ERR1 (Homo sapiens, UniProt P11474)
T4 sequence (P11474 whole entry): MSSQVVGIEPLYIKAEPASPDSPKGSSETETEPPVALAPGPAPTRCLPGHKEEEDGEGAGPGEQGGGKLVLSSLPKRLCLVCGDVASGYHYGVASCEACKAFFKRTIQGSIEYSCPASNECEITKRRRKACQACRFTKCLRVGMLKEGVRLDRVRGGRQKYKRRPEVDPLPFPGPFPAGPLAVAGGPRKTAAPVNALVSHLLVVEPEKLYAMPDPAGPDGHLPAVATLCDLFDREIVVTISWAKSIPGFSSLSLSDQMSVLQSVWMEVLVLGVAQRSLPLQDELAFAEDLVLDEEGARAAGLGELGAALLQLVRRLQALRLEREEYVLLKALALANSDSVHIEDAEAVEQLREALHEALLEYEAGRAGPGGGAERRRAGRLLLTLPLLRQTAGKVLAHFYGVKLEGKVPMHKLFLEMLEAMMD

[11] = target: T5, Steroid hormone receptor ERR2 (Homo sapiens, UniProt O95718); test: Binding affinity to ERRbeta (unknown origin) using fluorescein-conjugated coactivator PGC-1alpha incubated for 1 hr by TR-FRET assay
T5 sequence (O95718 whole entry): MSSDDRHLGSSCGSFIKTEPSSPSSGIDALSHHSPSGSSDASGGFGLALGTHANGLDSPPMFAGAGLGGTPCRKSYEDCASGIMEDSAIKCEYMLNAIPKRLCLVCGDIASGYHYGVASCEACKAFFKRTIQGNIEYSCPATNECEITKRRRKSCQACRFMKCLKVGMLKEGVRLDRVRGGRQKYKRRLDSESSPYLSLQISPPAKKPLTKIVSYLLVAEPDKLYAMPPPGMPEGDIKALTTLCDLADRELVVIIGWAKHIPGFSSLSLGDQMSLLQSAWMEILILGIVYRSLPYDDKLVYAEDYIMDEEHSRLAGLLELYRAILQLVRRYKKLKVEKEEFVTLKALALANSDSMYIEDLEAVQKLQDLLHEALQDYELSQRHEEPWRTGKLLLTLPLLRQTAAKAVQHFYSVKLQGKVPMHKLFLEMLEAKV

Structure (SMILES): OCCC/C(=C(\c1ccc(Br)cc1)c1ccc(N2CCNCC2)cc1)c1ccccc1
- inhibition at 0.25 h, 10 µM [1]: 29.3%
- remaining at 0.5 h, 1 µM [2]: 65.1%
- pIC50 [3]: < 5.00
- inhibition at 0.25 h, 10 µM [4]: 45%
- inhibition at 0.25 h, 10 µM [5]: 38.1%
- remaining at 0.5 h, 1 µM [6]: 84.7%
- inhibition at 0.25 h, 10 µM [7]: 24%
- inhibition at 0.25 h, 10 µM [8]: 15%

Structure (SMILES): CC(C)N1CCN(c2ccc(/C(=C(/CCCO)c3ccccc3)c3ccc(OS(=O)(=O)C(F)(F)F)cc3)cc2)CC1
- pIC50 [9]: 5.52

Structure (SMILES): CC(C)N1CCN(c2cccc(/C(=C(/CCCO)c3ccccc3)c3ccc(O)cc3)c2)CC1
- pIC50 [9]: < 5.00

Structure (SMILES): CC(C)N1CCN(c2cccc(/C(=C(/CCCO)c3ccccc3)c3cccc(O)c3)c2)CC1
- pIC50 [9]: 5.25

Structure (SMILES): CCN1CCN(c2ccc(/C(=C(/CCCO)c3ccccc3)c3ccc(O)cc3)cc2)CC1
- pIC50 [9]: 7.30
- pIC50 [3]: 5.94
- pIC50 [10]: < 5.00

Structure (SMILES): CN1CCN(c2ccc(/C(=C(/CCCOC(=O)C(C)(C)C)c3ccccc3)c3ccc(OC(=O)C(C)(C)C)cc3)cc2)CC1
- pIC50 [9]: < 5.00

Structure (SMILES): OCCC/C(=C(\c1ccc(O)cc1)c1ccc(N2CCN(C3CCC3)CC2)cc1)c1ccccc1
- pIC50 [9]: 7.28
- pIC50 [3]: 5.78
- pIC50 [10]: < 5.00

Structure (SMILES): OCCC/C(=C(\c1ccc(O)cc1)c1ccc(N2CCNCC2)cc1)c1ccccc1
- pIC50 [3]: 5.60
- pIC50 [10]: < 5.00
- pIC50 [11]: 5.34

Structure (SMILES): OCCC/C(=C(\c1ccc(O)cc1)c1ccc(N2CCN(C3CCCC3)CC2)cc1)c1ccccc1
- pIC50 [9]: 6.94

Structure (SMILES): CC(C)N1CCN(c2ccc(/C(=C(/CCCO)c3ccccc3)c3ccc(NS(=O)(=O)C4CC4)cc3)cc2)CC1
- pIC50 [9]: 5.44

Structure (SMILES): N=C(N)N1CCN(c2ccc(/C(=C(/CCCO)c3ccccc3)c3ccc(O)cc3)cc2)CC1
- pIC50 [9]: 6.29

Structure (SMILES): CC(=O)Nc1ccc(/C(=C(\CCCO)c2ccccc2)c2ccc(N3CCN(C(C)C)CC3)cc2)cc1
- pIC50 [9]: 5.36

Structure (SMILES): CN1CCN(c2ccc(/C(=C(/CCCOC(=O)C(C)(C)C)c3ccccc3)c3ccc(O)cc3)cc2)CC1
- pIC50 [9]: < 5.00
